From patent publication US20120295920A1, “5-AMINO-4-HYDROXYPENTOYL AMIDES” (priority 2009, published 2012)
pEC50: −log10 of the molar value. Read-outs that look alike come from different tables or passages of the source.

Experiments:
[1] = General toxicity assay on mock-infected MT4 cells with CMV-EGFP reporter (CC50); type: cell-based; conditions: human
[2] = test system: HIV-1 IIIB; assay: 50% HS-Rezazurin: antiviral assay in the presence of 50% human serum, MT-4 cells, resazurin cell viability; type: cell-based; conditions: Human immunodeficiency virus 1, IIIB, MT4, 96 h
In short: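 MT-4 cells infected with HIV-1 IIIB (MOI 0.001 to 0.01 CCID50/cell) for 1 h, washed, then plated onto serial compound dilutions in 50% human serum (10% FCS alternative). After 4 days, EC50 derived from resazurin cell viability.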

[3] = test system: HIV-1 wild-type strain; assay: General antiviral assay, cell-based virus replication in MT4-LTR-EGFP cells, wild-type strain; conditions: Human immunodeficiency virus 1; wild-type strain IIIB, MT4-LTR-EGFP cells
In short: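 HIV LTR-driven EGFP reporter MT4 cells (150,000 cells/ml) infected at MOI 0.0025 with or without inhibitor at various concentrations. Read-out either GFP fluorescence on day 3 post-infection or resazurin cell viability on day 4.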

[4] = test system: HIV-1 Strain C (G048G/V, V082A); assay: microbe, parasite or virus in culture; type: cell-based; conditions: Human immunodeficiency virus 1, read-out: C EC50
In short: (§1)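 MT4 cells stably carrying an HIV LTR-driven EGFP reporter (150,000 cells/ml) were infected at MOI 0.0025 with or without inhibitor dilutions. Replication was read either as GFP fluorescence on day 3 post-infection or as cell viability by resazurin on day 4.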

[5] = test system: HIV-1 Strain A (M046I, I084V); assay: microbe, parasite or virus in culture; type: cell-based; conditions: Human immunodeficiency virus 1, read-out: A EC50
In short: as §1

[6] = test system: HIV-1 Strain B (M046I, I050V); assay: microbe, parasite or virus in culture; type: cell-based; conditions: Human immunodeficiency virus 1, read-out: B EC50
In short: as §1

[7] = mock-infected MT4 cells with CMV-EGFP reporter, read-out: TOX-MT4CMV (CC50)
[8] = MT4LTR cells, read-out: TOX-MT4LTR (CC50)

Compound: CNC(=O)[C@@H](NC(=O)[C@H](Cc1ccccc1F)C[C@H](O)[C@H](Cc1ccc(-c2ccc(N(C)C)nc2)cc1)NC(=O)[C@@H](NC(=O)OC)C(C)(C)C)C(C)(C)C [Compound 90]
- CC50 [1, 7]: > 32000 nM
- pEC50 [2]: 7.87
- pEC50 [3]: 8.33
- pEC50 [4]: 8.55
- pEC50 [5]: 8.32
- pEC50 [6]: 8.59

Compound: COC(=O)N[C@H](C(=O)N[C@@H](Cc1ccc(-c2ccc(N(C)C)nc2)cc1)[C@@H](O)C[C@@H](Cc1ccccc1F)C(=O)N[C@H]1c2cc(F)cc(Cl)c2OC[C@H]1O)C(C)(C)C [Compound 52]
- melting point: 255.44 °C
- CC50 [1, 8]: > 32000 nM
- pEC50 [2]: 8.21
- pEC50 [3]: 8.74
- pEC50 [4]: 9.15
- pEC50 [5]: 8.92
- pEC50 [6]: 9.05

Compound: COC(=O)N[C@H](C(=O)N[C@@H](Cc1ccc(-c2ccc(OC)nc2)cc1)[C@@H](O)C[C@@H](Cc1ccccc1F)C(=O)N[C@H]1c2ccsc2CC[C@H]1O)C(C)(C)C [Compound 93]
- CC50 [1, 8]: > 32000 nM
- CC50 [1, 7]: > 32000 nM
- pEC50 [2]: 8.46
- pEC50 [3]: 8.89
- pEC50 [4]: 9.40
- pEC50 [5]: 9.10
- pEC50 [6]: 9.22

Compound: CN(C)c1ccc(-c2ccc(C[C@H](NC(=O)O[C@H]3CO[C@H]4OCC[C@H]43)[C@@H](O)C[C@@H](Cc3ccccc3F)C(=O)N[C@H]3c4cc(Cl)ccc4OC[C@H]3O)cc2)cn1 [Compound 79]
- CC50 [1, 8]: > 32000 nM
- pEC50 [2]: 7.89
- pEC50 [3]: 8.77
- pEC50 [4]: 9.15
- pEC50 [5]: 8.96
- pEC50 [6]: 9.00

Compound: COC(=O)N[C@H](C(=O)N[C@@H](Cc1ccc(-c2ccc(OC)nc2)cc1)[C@@H](O)C[C@@H](Cc1cccc(OC(F)(F)F)c1)C(=O)N[C@H]1c2cc(F)ccc2OC[C@H]1O)C(C)(C)C [Compound 64]
- CC50 [1, 8]: > 32000 nM
- pEC50 [2]: 7.82
- pEC50 [3]: 8.59
- pEC50 [4]: 8.89
- pEC50 [5]: 8.52
- pEC50 [6]: 8.80

Compound: COC(=O)N[C@H](C(=O)N[C@@H](Cc1ccc(-c2cnc(C(C)C)s2)cc1)[C@@H](O)C[C@@H](Cc1ccccc1F)C(=O)N[C@H]1c2ccccc2OC[C@H]1O)C(C)(C)C [Compound 38]
- CC50 [1, 7]: 10000 nM
- pEC50 [2]: 7.42
- pEC50 [3]: 8.15
- pEC50 [4]: 8.59
- pEC50 [5]: 8.36
- pEC50 [6]: 8.44
